Read-outs that look alike come from different tables or passages of the source.

The nature of series [1]: CNS MPO desirability score. The conditions noted are these: from experimental and calculated data, method of Wager et al. (2016); scale 0-6. As for the experimental part:
ACDLAbs PhysChem Suite 14.0 software (Advanced Chemistry Development, Inc., Toronto, ON, Canada) was used for the calculation of Mw, tPSA, and HBD values. The CNS MPO score calculation method was described by [Wager et al. (2016)].
Central nervous system multiparameter optimization desirability score was calculated as described by [Wager et al. (2016)], utilizing all collected experimental and calculated data. This scoring tool was set on ranges of desirable property space and linear transformational functions with values between 0 and 1 (defined as T0 for each property). Rating each parameter equally, the collective score ranges from 0 to 6, while a score higher than 4 is desirable ([Rankovic, 2015]).

Series [2] in a line: Dissociation constants by spectrophotometric titration. The note with it: 20°C; for pKa: ultrapure water. The format is physicochemical. As for the experimental part: The spectrophotometric titration was used for dissociation constants’ determination, utilizing spectrophotometer Agilent Cary-60 (Agilent Technologies, CA, USA), pH meter WTW InoLab_IDS Multi 9430 (WTW, Czech Republic), and pH electrode SenTix® Mic (WTW, Czech Republic). Data were analyzed by GraphPadPrism 8.0 software (GraphPad Software, CA, USA). The analyzed samples were prepared by adding 20 μL of compound stock solution (2 mg/mL) and 20 μL of 0.1 M hydrochloric acid into the cuvette with ultrapure water (total volume 3.5 mL). The samples were titrated by 0.1 M sodium hydroxide at 20°C while acquiring absorption spectra (190–500 nm) at different pH values. Absorbance at the chosen wavelength was plotted as a function of pH. The inflection point in the given plot was used for pKa value determination.

In series [3] the test system is pro-inflammatory cytokines of SASP. The series is described as follows: Secretion of pro-inflammatory cytokines (SASP) by senescent cells. In kind it is cell-based, human. The note with it: 50 μM, 24 h; for all detectable cytokines (IL-1α, IL-1β, IL-6, IL-8, IL-27, MCP-1, TNFα): TMZ-induced U87 senescent cells. As for the experimental part:
To determine the secretion of selected inflammatory cytokines into culture media, cell cultures were exposed to tested compounds (50 μM) for 24 h. Then the culture medium was removed, cells were washed three times with 1 mL PBS, and a fresh medium without FBS was added for 24 h. Detection of cytokines in conditioned culture media was done by Human Inflammation 11-Plex Panel: IFNγ, IL-1α, IL-1β, IL-6, IL-8, IL-10, IL-12p70, IL-27, IP-10, MCP-1, and TNFα (AimPlex Biosciences, Inc.) using a BD FACSVerseTM flow cytometer (BD Biosciences, Franklin Lakes, NJ, USA) according to manufacturer’s protocol. Data were analyzed using FlowJo 10 software (FlowJo LLC, Ashland, OR, USA).
Importantly, compound 3 decreased IL-1α, IL-8, and MCP-1 consistently in all tested senescence models. The effect of compound 3 on IL-6 was variable.

Another series concerns C57BL/6 (B6) male mice. The series is described as follows: Spleen cell populations by flow cytometry in the tolerability study. The note with it: for CD4+ spleen cells / CD8+ spleen cells / Cd11b+/Gr-1+ spleen cells: percentage from the CD45+ cells. In kind it is in vivo. As for the experimental part: During the experiments, mice behavior and possible apparent signs of toxicity were monitored daily. The body weights were determined on days 0, 4, and 8. On day 8, blood (25 μL) was withdrawn using a capillary pipette containing anticoagulant (heparin) from the retroorbital sinus into EDTA-containing tubes. Basic hematological parameters were measured using the Mindray BC-5300 Vet. Mice were then killed, autopsied, and abdominal organs (spleen, liver, and kidney) were removed for visual examination and imaging by a digital camera. Single-cell suspensions from the spleens were prepared by homogenization through a cell strainer (70 μm; BD Biosciences, San Jose, CA, USA). Erythrocytes were osmotically lysed using ammonium chloride-potassium lysis buffer, and the cell suspensions were washed three times in the RPMI-1640 medium and used for further analysis by flow cytometry for selected cell populations.
The cellularity of selected spleen cell populations was analyzed by flow cytometry. Cell suspensions were washed and preincubated with anti-CD16/CD32 (2.4G2) antibody to minimize non-specific binding at 4°C for 15 min following the washing step and incubation with labeled primary antibody at 4°C for 30 min. Relevant isotype controls of irrelevant specificity were used. FACS buffer (PBS, 1% FBS, 0.1% NaN3) was used for all washing steps and analysis. The following antibodies were used for FACS analyses: BV421 anti-mouse CD45 (30-F11), PE anti-mouse CD8α (53-6.7), BV711 anti-mouse CD4 (RM4-5), APC anti-mouse Ly-6g/Ly-6C (Gr-1) (RB6-8C5), BV711 anti-mouse CD11b (M1/70). FACS analysis was performed using a flow cytometer Symphony (BD Biosciences) and analyzed using FlowJo 10 software (FlowJo LLC, Ashland, OR, USA).
For orientation: A flow cytometer gives signals particle by particle.

For series [4], the system named is glioblastoma T98, A172 and U87 cells. In words: Crystal violet and resazurin assays in further glioblastoma lines. The note with it: 0–100 μM, 24 h. In kind it is cell-based, human. As for the experimental part: Twenty-four hours before treatment, cells were plated in 96-well plates at densities of 2,850 cells per well for senescent RPE-1 (IR-RPE-1), 3,350 cells per well for proliferating RPE-1 and senescent BJ (DIS-BJ), and 5,000 cells per well for U373, T98, A172, U87, TMZ-U87, and proliferating BJ cells.
For the crystal violet assay, the cells were washed twice with 150 μL PBS and stained with 30 μL 0.5% (w/v) crystal violet in 20% methanol for 15 mins. Next, the plates were washed five times with ddH2O and left to dry overnight. Crystal violet was solubilized with 75 μL 0.2% Triton X-100 (Sigma) in PBS for 15 mins. The absorbance was read at 595 nm using a microplate reader (Envision, PerkinElmer, Waltham, MA, USA). The absorbance of crystal violet in treated cells was expressed as a percentage of absorbance in untreated cells. Each condition was measured at least in triplicate.
For the resazurin assay, 200 μL of the culture medium of each well was exchanged for 100 μL of resazurin (stock solution 30 mg/mL; Sigma, St. Louis, MO, USA) diluted 10 times in the culture medium, and the cells were incubated at 37°C for 1–3 h. Reading of fluorescence was done using a microplate reader (PerkinElmer, Waltham, MA, USA). Absolute values of fluorescence were related to the values of untreated cells. Each condition was measured at least in triplicate.
For orientation: The colour change of resazurin is a common sign of viable cells or microbes.

[5] abbreviates: all tested senescence models (DIS-BJ, IR-RPE-1, TMZ-U87).
The mark [6] stands for this setting: 5 mg/kg p.o. days 0, 3, 5, spleen day 8.
The mark [7] stands for this setting: 25 mg/kg p.o. days 0, 3, 5, spleen day 8.
Setting [8] is: 50 mg/kg p.o. days 0, 3, 5, spleen day 8.

Regarding `Nc1ccc(C(=O)Nc2cccc(-c3c[nH]c4ncccc34)c2)cc1O` [Compound 3, N-(3-(1H-pyrrolo[2,3-b]pyridin-3-yl)phenyl)-4-amino-3-hydroxybenzamide], the “MPO (CNS MPO score)” value in series [1] is given as 4.5. Moreover, the pKa in series [2] (read-out: pKa1) was 3.6 ± 0.29; in series [2] (read-out: pKa2), 7.91 ± 0.15. In addition, the “IL-6 level in conditioned medium” value in series [3] (DIS-BJ senescent cells) and in series [3] (TMZ-U87 senescent cells) was “apparent decrease” throughout. Further, in series [3], the “all detectable cytokines (IL-1α, IL-1β, IL-6, IL-8, IL-27, MCP-1, TNFα)” value was “suppressed”. In series [3] (setting [5]), the “IL-1α level in conditioned medium” value was “decreased”. Besides, in series [3] (setting [5]), the “IL-8 level in conditioned medium” value was “decreased”. Further, the “MCP-1 level in conditioned medium” value in series [3] (setting [5]) was “decreased”. Besides, the “CD45+ spleen cells” value came to 94.3% with C57BL/6 (B6) male mice (setting [6]), 95.9% with C57BL/6 (B6) male mice (setting [7]) and 97.2% in the series with C57BL/6 (B6) male mice (setting [8]). Also, the “CD4+ spleen cells” value in the series on C57BL/6 (B6) male mice (5 mg/kg p.o.) is given as 19.0%; with C57BL/6 (B6) male mice (25 mg/kg p.o.) it was 15.9%; with C57BL/6 (B6) male mice (50 mg/kg p.o.), 16.0%. The figures for the “CD8+ spleen cells” value in the series on C57BL/6 (B6) male mice (5 mg/kg p.o.), in the series with C57BL/6 (B6) male mice (25 mg/kg p.o.) and in the series on C57BL/6 (B6) male mice (50 mg/kg p.o.) were 11.4%, 9.6% and 9.8%, respectively. Moreover, the “Cd11b+/Gr-1+ spleen cells” value in the series on C57BL/6 (B6) male mice (5 mg/kg p.o.) was found to be 0.7%; with C57BL/6 (B6) male mice (25 mg/kg p.o.) it was 1.0%; with C57BL/6 (B6) male mice (50 mg/kg p.o.), 0.8%. For the same compound, in series [4], the “effect in crystal violet and resazurin assays” value is listed as “significantly affected”.
Compound `CC(C)n1nc(-c2cc3cc(O)ccc3[nH]2)c2c(N)ncnc21` [Torkinib, torkinib] came in with a pKa1 in series [2] of 3.96 ± 0.02. Also, the pKa2 in series [2] was determined as 10.37 ± 0.18. In addition, the “all detectable cytokines (IL-1α, IL-1β, IL-6, IL-8, IL-27, MCP-1, TNFα)” value in series [3] is on record as “suppressed”. Moreover, the “CD45+ spleen cells” value in the series on C57BL/6 (B6) male mice (setting [6]) worked out at 92.0%; in the series with C57BL/6 (B6) male mice (setting [7]), 96.7%; with C57BL/6 (B6) male mice (setting [8]), 84.0%. The “CD4+ spleen cells” value worked out at 15.5% in the series on C57BL/6 (B6) male mice (5 mg/kg p.o.), 15.4% in the series on C57BL/6 (B6) male mice (25 mg/kg p.o.) and 16.6% in the series on C57BL/6 (B6) male mice (50 mg/kg p.o.). In addition, the “CD8+ spleen cells” value is on record as 10.4% with C57BL/6 (B6) male mice (5 mg/kg p.o.), 9.8% with C57BL/6 (B6) male mice (25 mg/kg p.o.) and 10.2% in the series on C57BL/6 (B6) male mice (50 mg/kg p.o.). Further, the “Cd11b+/Gr-1+ spleen cells” value in the series on C57BL/6 (B6) male mice (5 mg/kg p.o.) came out at 0.9%; in the series with C57BL/6 (B6) male mice (25 mg/kg p.o.), 0.6%; in the series on C57BL/6 (B6) male mice (50 mg/kg p.o.), 1.3%.
